Patent US8557792B2, “Method of treating vitamin B12 deficiency” (priority 2007, dated 2013)

Tests used:
[1] = Vitamin B12 absorption (plasma PK) after dosing Sprague-Dawley rats; format: in vivo; details: male rats
Description: Tablets with four types of different ingredients were made as follows: (1) 8.8 mg of vitamin B12, 35 mg of SNAC were weighed, thoroughly mixed and made into a tablet for dosing on rat; (2) 8.8 mg of vitamin B12, 35 mg of SNAC and 5 mg of Capmul PG-8 were weighed, thoroughly mixed and made into a tablet; (3) 8.8 mg of vitamin B12, 35 mg of SNAC and 0.9 mg of Providone were weighed, thoroughly mixed and made into a tablet. Each of the four processes was repeated to produce more tablets.
Male Sprague-Dawley rats (325-350 g) were dosed with vitamin B12 intravenously (0.5 mg/kg) alone, or orally with the tablets made in Example 4 at a dose of 50 mg/kg vitamin B12 alone or in combination with SNAC at 200 mg/kg. Blood samples were collected at 0, 3, 10, 20, 30, 60, 120, 240 and 360 minutes post dosing. Plasma samples were analyzed for B12 by RIA. The model independent PK metrics obtained following B12-SNAC combination were compared to those obtained following B12 alone.

[2] = Serum cyanocobalamin pharmacokinetics after dosing human subjects; format: in vivo; details: healthy male subjects, fasted, single intravenous dose 1 mg cyanocobalamin, 4 subjects
Description: Sixteen healthy male subjects were randomized to receive one of the following treatments: • (1) Treatment B: a single oral dose of cyanocobalamin/SNAC (5 mg cyanocobalamin/100 mg SNAC) administered in the fasted state as a tablet. (6 subjects); • (2) Treatment C: a single oral dose of cyanocobalamin alone (5 mg cyanocobalamin, VitaLabs, commercial) administered in the fasted state as a tablet. (6 subjects). • (3) Treatment D: a single intravenous dose of cyanocobalamin (1 mg cyanocobalamin) administered in the fasted state. (4 subjects). Each subject received a 1 mL intravenous injection of a 1 mg/mL (1000 μg/mL) solution resulting in a total dose of 1 mg cyanocobalamin.
The subjects were fasted overnight prior to dosing and had no liquids (including water) consumption for at least one hour before and after dosing. The oral forms of cyanocobalamin/SNAC tablets were administered in a single dose as tablets with 50 mL of plain water. Twenty-five blood samples were drawn for cyanocobalamin analyses at the following time points: within 30 minutes pre-dose and at Minutes 2, 5, 10, 20, 30, 40, 50, and at Hours 1, 1.5, 2, 3, 4, 5, 6, 7, 8, 9, 10, 11, 12, 14, 16, 20 and 24 post-dose.
Pharmacokinetic metrics was obtained following a model independent pharmacokinetic analysis of individual cyanocobalamin concentrations. Descriptive statistics was used to summarize the results.

[3] = IV, 0.5 mg/kg vitamin B12, N = 5
[4] = PO tablet, 50 mg/kg vitamin B12 (alone or with 200 mg/kg SNAC), N = 5

| AUC Mean [1, 3] | Tmax Mean [1, 3] | Cmax Mean ([1]; IV, 0.5 mg/kg vitamin B12, plasma B12 by RIA, N = 5) | AUC Mean [1, 4] | Tmax Mean [1, 4] | Cmax Mean ([1]; PO tablet, 50 mg/kg vitamin B12 (alone or with 200 mg/kg SNAC), plasma B12 by RIA, N = 5) | Mean Bioavailability ([1]; PO tablet, 50 mg/kg vitamin B12 (alone or with 200 mg/kg SNAC), versus IV) | Mean B12 peak concentration (Cmax) [2] | mean AUClast (0-24) [2] | Substance |
| --- | --- | --- | --- | --- | --- | --- | --- | --- | --- |
| 65.84 µg·min/mL | 4.4 min | 2150 ng/mL | 28.72 µg·min/mL | 52 min | 140 ng/mL | 0.42% | – | – | Vitamin B12 |
| – | – | – | – | – | – | – | 221.287 ± 80.248 ng/mL | 215.391 ± 44.602 ng·h/mL | cyanocobalamin |
